Experimental data taken from patent US6489440B1, “Cyclic compounds” (Basilea Pharmaceutica AG, priority 1998, dated 2002).
Numbered stars: 1 amine (or outer) side, 2 acyl side, 3 side chain; on linkers, the order of the positions; unused ones are H or OH. Bridge positions count the residues as written; N and C are the ends. Square brackets hold non-standard residues; d marks the D form. Peptide text beside a SMILES is read from it. ξ: configuration not given here. X7 = CCCCCCCCCCCCC(C)[C@H](CC(=O)[*:1])O[*:2]; X2 = NC(=O)CC(O)C(N[*:1])C(=O)[*:2]; X1 = O=C(C1C(O)CCN1[*:1])[*:2]; ξY = NC(Cc1ccc(O)cc1)C(=O)O; ξHyp = O=C(O)C1CC(O)CN1; ξOrn = NCCCC(N)C(=O)O; ξT = CC(O)C(N)C(=O)O; ξV = CC(C)C(N)C(=O)O; ξA = CC(N)C(=O)O

Tests used:
Solubility = settings: solvents in which soluble
[1] = Acute toxicity on administration to mice for 4 weeks; format: in vivo; settings: 5 mg/kg and 30 mg/kg

CCCCCCCCCCCCC(C)[C@@H]1CC(=O)NC(C(C)O)C(=O)NC(C)C(=O)NC(Cc2ccc(O)cc2)C(=O)NC(C(C)C)C(=O)N2CC(O)CC2C(=O)NC(C(C)O)C(=O)NC(C(C)O)C(=O)N2CCC(O)C2C(=O)NC(C(O)CC(N)=O)C(=O)NCC(=O)NC(C(C)O)C(=O)NC(CCCN)C(=O)O1 (some centres unmarked) [Aerothricin 1] ([ξT][ξA][ξY][ξV][ξHyp][ξT][ξT][X1][X2]G[ξT][ξOrn]; linker N-C via X7)
Solubility (Solubility): Soluble: water, methanol, dimethylsulfoxide
acute toxicity [1]: no acute toxicity
